{
  "source": "paper PMC7912928",
  "about": "“Anti-Infective and Antiviral Activity of Valinomycin and Its Analogues from a Sea Cucumber-Associated Bacterium, Streptomyces sp. SV 21” (Marine Drugs, 2021)",
  "key": {"[1]": {"system": "Mycobacterium smegmatis (ATCC 700084)", "experiment": "Antimicrobial microdilution assay (MIC)", "assay_type": "cell-based", "conditions": "microdilution in 96-well plates, seven 1:2 serial dilution steps, Mueller–Hinton bouillon, start OD548 0.1, 30 °C, 160 rpm overnight", "from_the_text": "(§1) The panel of test microorganisms consisted of the following multi drug-resistant (MDR) bacteria: Gram-negative Escherichia coli (DSM 1116) and Pseudomonas aeruginosa (PA16); Gram-positive Bacillus subtilis (DSM 10), Staphylococcus aureus (DSM 346), and Mycobacterium smegmatis (ATCC 7000048); yeasts Candida albicans (DSM 1665) and Rhodotorula glutinis (DSM 10134); and filamentous fungi Mucor hiemalis (DSM 2656). The positive controls were nystatin, oxytetracyclin, kanamycin, and gentamycin, with a concentration of 1 mg/mL. Compounds 1–4 were prepared in a concentration of 1 mg/mL MeOH. The activity of the samples was observed by using the microdilution technique in 96 well plates for tissue cultures (TPP). As much as 20 µL of the MeOH solution of each compound (1 mg/mL) was mixed with 300 µL of bacterial or fungal suspension, except for the positive controls where 2 µL of either oxytetracycline, kanamycin, and gentamycin in 300 µL of bacterial suspension was used. The samples were tested in seven 1:2 serial dilution steps (concentrations A to H) in 96-well plates. Bacteria were cultivated in Mueller–Hinton bouillon (Roth) and fungi/yeasts in MYC medium (1.0% phytone peptone, 1.0% glucose, and 1.19% HEPES, pH 7.0). Start OD600 was 0.01 for B. subtilis, E. coli, and S. aureus; start OD548 was 0.1 for M. hiemalis, C. albicans, R. glutinis, M. smegmatis, and P. aeruginosa. The test organisms were cultivated at 30 °C and 160 rpm overnight."}, "Huh7.5 cells": {"system": "Huh7.5 cells", "experiment": "Viability of Huh7.5 cells (Firefly luciferase) in the anti-HCV assay", "assay_type": "cell-based", "conditions": "10 µg/mL; Firefly luciferase read-out; compared to positive control EGCG; Figure 4B", "protocol": "(§2) The anti-HCV assay was performed as mentioned in [5]. In brief, Huh7.5 cells stably expressing Firefly luciferase (Huh7.5 Fluc) were cultured in Dulbecco’s modified minimum essential medium (DMEM, Gibco, Thermo Fisher Scientific, Schwerte, Germany) and maintained in a 37 °C environment with 5% CO2 supply. Samples were added to the cells, and then the cells were infected with Jc1-derived Renilla reporter viruses. Compounds and the positive control (Epigallocatechin gallate, EGCG) were tested at a concentration of 10 µg/mL. Renilla and Firefly luciferase activities from the infected cells were measured on a Berthold Technologies Centro XS3 Microplate Luminometer (Bad Wildbad, Germany) as indicators of viral genome replication and cell viability, respectively."}, "[2]": {"system": "Hepatitis C Virus (HCV), Jc1-derived Renilla reporter viruses in Huh7.5 Fluc cells", "experiment": "Inhibitory effects on Hepatitis C Virus (HCV) infectivity", "assay_type": "cell-based", "conditions": "10 µg/mL, Huh7.5 Fluc cells infected with Jc1-derived Renilla reporter viruses, Renilla luciferase read-out, compared to positive control EGCG, Figure 4A", "protocol": "as §2"}, "[3]": {"system": "Eschericia coli (DSM 1116)", "experiment": "Antimicrobial microdilution assay (MIC)", "assay_type": "cell-based, Escherichia coli", "conditions": "seven 1:2 serial dilution steps, Mueller–Hinton bouillon, start OD600 0.01, 30 °C, 160 rpm overnight; for MIC, Gram-Negative, Ec: microdilution in 96-well plates", "from_the_text": "as §1"}, "[4]": {"system": "Mucor hiemalis (DSM 2656)", "assay_type": "cell-based", "conditions": "for MIC, Fungi, Mh: Mucor hiemalis (DSM 2656), microdilution in 96-well plates, seven 1:2 serial dilution steps, MYC medium pH 7.0, start OD548 0.1, 30 °C, 160 rpm overnight", "from_the_text": "as §1"}, "[5]": {"system": "Rhodoturula glutinis (DSM 10134)", "assay_type": "cell-based", "conditions": "for MIC, Fungi, Rg: Rhodoturula glutinis (DSM 10134), microdilution in 96-well plates, seven 1:2 serial dilution steps, MYC medium pH 7.0, start OD548 0.1, 30 °C, 160 rpm overnight", "from_the_text": "as §1"}, "Bacillus subtilis (Bs)": {"system": "Bacillus subtilis (Bs)", "conditions": "pH values from 5.5 to 9.5; cited from earlier work", "from_the_text": "Previous studies had also shown antifungal activity of valinomycin against the plant pathoge ..."}, "[6]": {"system": "Staphylococcus aureus (DSM 346)", "experiment": "microbe, parasite or virus in culture", "assay_type": "cell-based", "conditions": "seven 1:2 serial dilution steps, Mueller–Hinton bouillon, start OD600 0.01, 30 °C, 160 rpm overnight; for MIC, Gram-Positive, Sa: microdilution in 96-well plates", "from_the_text": "as §1"}, "[7]": {"system": "Pseudomonas aeruginosa (PA14)", "experiment": "Antimicrobial microdilution assay (MIC)", "assay_type": "cell-based", "conditions": "microdilution in 96-well plates, seven 1:2 serial dilution steps, Mueller–Hinton bouillon, start OD548 0.1, 30 °C, 160 rpm overnight", "from_the_text": "as §1"}, "[8]": {"system": "Bacillus subtilis (DSM 10)", "experiment": "microbe, parasite or virus in culture", "assay_type": "cell-based", "conditions": "seven 1:2 serial dilution steps, Mueller–Hinton bouillon, start OD600 0.01, 30 °C, 160 rpm overnight", "from_the_text": "as §1"}, "[9]": {"system": "Candida albicans (DSM 1665)", "experiment": "Antimicrobial microdilution assay (MIC)", "assay_type": "cell-based", "conditions": "microdilution in 96-well plates, seven 1:2 serial dilution steps, MYC medium pH 7.0, start OD548 0.1, 30 °C, 160 rpm overnight", "from_the_text": "as §1"}},
  "data": [
    {"molecule": "NC[C@H]1O[C@H](O[C@H]2[C@H](O)[C@@H](O[C@H]3O[C@H](CO)[C@@H](O)[C@H](N)[C@H]3O)[C@H](N)C[C@@H]2N)[C@H](O)[C@@H](O)[C@@H]1O", "note": "[Kanamycin]", "values": [
      {"measurement": "MIC, Gram-Positive, Ms", "setting": "[1]", "result": 3.3, "unit": "µg/mL"}
    ]},
    {"molecule": "CC[C@H]1OC(=O)[C@H](C(C)C)NC(=O)[C@H](C)OC(=O)[C@@H](C(C)C)NC(=O)[C@@H](C(C)C)OC(=O)[C@H](C(C)C)NC(=O)[C@H](C)OC(=O)[C@@H](C(C)C)NC(=O)[C@@H](C(C)C)OC(=O)[C@H](C(C)C)NC(=O)[C@H](C)OC(=O)[C@@H](C(C)C)NC1=O", "note": "[Streptodepsipeptide P11A (2), Streptodepsipeptide P11A]", "values": [
      {"measurement": "Viability of Huh7.5 cells after exposure to the test compounds, in words", "setting": "Huh7.5 cells", "result": "lower than for the positive control"},
      {"measurement": "Activity against HCV infectivity (HCV-infected hepatoma cells), in words", "setting": "[2]", "result": "potent antiviral activity"},
      {"measurement": "MIC, Gram-Negative, Ec", "setting": "[3]", "result": "-"},
      {"measurement": "MIC, Fungi, Mh", "setting": "[4]", "result": 8.3, "unit": "µg/mL"},
      {"measurement": "MIC, Fungi, Rg", "setting": "[5]", "result": 8.3, "unit": "µg/mL"}
    ]},
    {"molecule": "CC(C)[C@@H]1NC(=O)[C@H](C)OC(=O)[C@@H](C(C)C)NC(=O)[C@@H](C(C)C)OC(=O)[C@H](C(C)C)NC(=O)[C@H](C)OC(=O)[C@@H](C(C)C)NC(=O)[C@@H](C(C)C)OC(=O)[C@H](C(C)C)NC(=O)[C@H](C)OC(=O)[C@@H](C(C)C)NC(=O)[C@@H](C(C)C)OC1=O", "note": "[Valinomycin (3), Valinomycin]", "values": [
      {"measurement": "Viability of Huh7.5 cells after exposure to the test compounds, in words", "setting": "Huh7.5 cells", "result": "lower than for the positive control"},
      {"measurement": "Antibacterial activity against Bs as a function of pH, in words", "setting": "Bacillus subtilis (Bs)", "result": "increase in antibacterial activity against Bs at higher pH values"},
      {"measurement": "MIC, Gram-Positive, Sa", "setting": "[6]", "result": 4.2, "unit": "µg/mL"},
      {"measurement": "Activity against HCV infectivity (HCV-infected hepatoma cells), in words", "setting": "[2]", "result": "potent antiviral activity"},
      {"measurement": "MIC, Gram-Negative, Ec", "setting": "[3]", "result": "-"},
      {"measurement": "MIC, Fungi, Mh", "setting": "[4]", "result": 2.1, "unit": "µg/mL"},
      {"measurement": "Antifungal strength relative to nystatin against Mh", "setting": "[4]; comparison of MIC values, Mucor hiemalis", "result": "eight times stronger than nystatin"},
      {"measurement": "MIC, Fungi, Rg", "setting": "[5]", "result": 4.2, "unit": "µg/mL"},
      {"measurement": "Antifungal strength relative to nystatin against Rg", "setting": "[5]; comparison of MIC values, Rg", "result": "as strong as nystatin"}
    ]},
    {"molecule": "Gentamycin", "values": [
      {"measurement": "MIC, Gram-Negative, Pa", "setting": "[7]", "result": 0.4, "unit": "µg/mL"}
    ]},
    {"molecule": "CC(C)[C@@H]1NC(=O)[C@H](C)OC(=O)[C@@H](C(C)C)NC(=O)[C@@H](C(C)C)OC(=O)[C@H](C(C)C)NC(=O)[C@H](C)OC(=O)[C@@H](C(C)C)NC(=O)[C@@H](C(C)C)OC(=O)[C@H](C(C)C)NC(=O)[C@H](C)OC(=O)[C@@H](C(C)C)NC(=O)[C@H](C)OC1=O", "note": "[Streptodepsipeptide P11B (1), Streptodepsipeptide P11B]", "values": [
      {"measurement": "Activity against HCV infectivity (HCV-infected hepatoma cells), in words", "setting": "[2]", "result": "significantly less affected the HCV"},
      {"measurement": "MIC, Gram-Negative, Ec", "setting": "[3]", "result": "-"},
      {"measurement": "MIC, Fungi, Mh", "setting": "[4]", "result": 16.6, "unit": "µg/mL"},
      {"measurement": "MIC, Fungi, Rg", "setting": "[5]", "result": 33.3, "unit": "µg/mL"}
    ]},
    {"molecule": "CCC(C)[C@H]1OC(=O)[C@H](C(C)C)NC(=O)[C@H](C)OC(=O)[C@@H](C(C)C)NC(=O)[C@@H](C(C)C)OC(=O)[C@H](C(C)C)NC(=O)[C@H](C)OC(=O)[C@@H](C(C)C)NC(=O)[C@@H](C(C)C)OC(=O)[C@H](C(C)C)NC(=O)[C@H](C)OC(=O)[C@@H](C(C)C)NC1=O", "note": "(stereo partly drawn) [Streptodepsipeptide SV21 (4), Streptodepsipeptide SV21]", "values": [
      {"measurement": "Viability of Huh7.5 cells after exposure to the test compounds, in words", "setting": "Huh7.5 cells", "result": "lower than for the positive control"},
      {"measurement": "MIC, Gram-Positive, Bs", "setting": "[8]; microdilution in 96-well plates", "result": 33.3, "unit": "µg/mL"},
      {"measurement": "MIC, Gram-Positive, Sa", "setting": "[6]", "result": 16.6, "unit": "µg/mL"},
      {"measurement": "Activity against HCV infectivity (HCV-infected hepatoma cells), in words", "setting": "[2]; listed as 4", "result": "potent antiviral activity"},
      {"measurement": "MIC, Gram-Negative, Ec", "setting": "[3]", "result": "-"},
      {"measurement": "MIC, Fungi, Mh", "setting": "[4]", "result": 16.6, "unit": "µg/mL"},
      {"measurement": "MIC, Fungi, Rg", "setting": "[5]", "result": 16.6, "unit": "µg/mL"}
    ]},
    {"molecule": "CN(C)[C@@H]1C(O)=C(C(N)=O)C(=O)[C@@]2(O)C(O)=C3C(=O)c4c(O)cccc4[C@@](C)(O)[C@H]3[C@H](O)[C@@H]12", "note": "[Oxytetracycline, reference compound]", "values": [
      {"measurement": "MIC", "setting": "[8]; DSM10, microdilution in 96-well plates, read-out: MIC, Gram-Positive, Bs", "result": 8.3, "unit": "µg/mL"},
      {"measurement": "MIC", "setting": "[6]; DSM346, microdilution in 96-well plates, read-out: MIC, Gram-Positive, Sa", "result": 0.2, "unit": "µg/mL"},
      {"measurement": "MIC", "setting": "[3]; Escherichia coli, DSM1116, microdilution in 96-well plates, read-out: MIC, Gram-Negative, Ec", "result": 1.7, "unit": "µg/mL"}
    ]},
    {"molecule": "C[C@@H]1[C@H](O)[C@@H](C)/C=C/C=C/CC/C=C/C=C/C=C/C=C/C(O[C@H]2O[C@H](C)[C@@H](O)[C@H](N)[C@@H]2O)CC2O[C@](O)(CC(O)C(O)CCC(O)CC(O)CC(O)CC(=O)O[C@H]1C)CC(O)C2C(=O)O", "note": "(stereo partly drawn) [Nystatin, reference compound]", "values": [
      {"measurement": "MIC, Fungi, Mh", "setting": "[4]", "result": 16.6, "unit": "µg/mL"},
      {"measurement": "MIC, Fungi, Rg", "setting": "[5]", "result": 4.2, "unit": "µg/mL"},
      {"measurement": "MIC, Fungi, Ca", "setting": "[9]", "result": 33.3, "unit": "µg/mL"}
    ]}
  ]
}
